The results in this text go back to patent publication US9586956B2, “Isoquinoline and naphthyridine derivatives” (Genentech, Inc., priority 2012, dated 2017).

This assay deals with T1, purified human MAP4K4 kinase domain (Homo sapiens, UniProt O95819).
T1 construct: purified human MAP4K4 kinase domain
T1 sequence (O95819 25-289 limits assumed): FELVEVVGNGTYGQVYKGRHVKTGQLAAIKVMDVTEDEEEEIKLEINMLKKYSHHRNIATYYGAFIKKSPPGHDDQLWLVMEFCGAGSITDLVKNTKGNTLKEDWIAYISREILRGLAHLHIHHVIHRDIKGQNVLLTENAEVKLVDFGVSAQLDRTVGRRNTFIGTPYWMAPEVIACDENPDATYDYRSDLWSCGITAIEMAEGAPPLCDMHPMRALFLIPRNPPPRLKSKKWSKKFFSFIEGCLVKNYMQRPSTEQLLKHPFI
Nature of the assay: MAP4K4 Inhibition Assay Protocol No. 1 (Caliper LabChip, moesin-derived peptide phosphorylation). In kind it is biochemical. The settings on record: Assay 1; 1 nM enzyme, 10 uM ATP, 45 min. As for the experimental part:
The kinase activity of purified human MAP4K4 kinase domain was measured by monitoring the phosphorylation of a peptide substrate derived from moesin protein (Leu-Gly-Arg-Asp-Lys-Tyr-Lys-Thr-Leu-Arg-Gln-Ile-Arg-Gln) fluorescently labeled on the N-terminus with 5-carboxyfluorescein using the Caliper LabChip technology (Caliper Life Sciences, Hopkinton, Mass.). To determine inhibition constants (IC50), compounds were serially diluted in DMSO and added to 10 uL kinase reactions containing 1 nM purified MAP4K4 enzyme, 1 uM peptide substrate, 10 uM ATP, 10 mM MgCl2, 1 mM EGTA, 50 mM Hepes pH 7.2, 1 mM DTT, 0.01% Triton X-100, and 2% DMSO. Reactions were incubated at room temperature in Perkin Elmer Proxiplates for 45 minutes and stopped by the addition of 10 uL of an EDTA-containing solution (50 mM Hepes pH 7.2, 40 mM EDTA, 0.02% Triton X-100). The fraction of phosphorylated peptide was determined as a fraction of total peptide substrate using the Caliper Lab Chip 3000 according to the manufacturer's instructions. IC50 values were determined using the four-parameter non-linear fit model.
Usually IC50 stands for the concentration that inhibits the measured activity by half. The low end stands for inhibition by little substance, the high end for a need for much substance. `Nc1ncc(C(=O)NCCN2CCCC2=O)c2ccc(-c3cccc(F)c3)cc12` [Example 77, 1-amino-7-(3-fluorophenyl)-N-[2-(2-oxopyrrolidin-1-yl)ethyl]isoquinoline-4-carboxamide] gave an IC50 of 0.507 µM. In other words, the sub-micromolar range.

Turning to `CC(C)(N)CNC(=O)c1cnc(N)c2cc(-c3cccc(F)c3)ccc12` [Example 78, 1-amino-N-(2-amino-2-methyl-propyl)-7-(3-fluorophenyl) isoquinoline-4-carboxamide], the IC50 was 2.4 µM.

`CC(=O)NCCNC(=O)c1cnc(N)c2cc(-c3cccc(F)c3)ccc12` [Example 80, N-(2-acetamidoethyl)-1-amino-7-(3-fluorophenyl) isoquinoline-4-carboxamide] returned a concentration for half-maximal inhibition (IC50) of 0.25 µM.

In turn, `Nc1ncc(C(=O)NCC(=O)N2CCOCC2)c2ccc(-c3cccc(F)c3)cc12` [Example 81, 1-amino-7-(3-fluorophenyl)-N-(2-morpholino-2-oxo-ethyl)isoquinoline-4-carboxamide] came in with an IC50 of 0.138 µM.

With `Nc1ncc(C(=O)NCCN2CCNC2=O)c2ccc(-c3cccc(F)c3)cc12` [Example 82, 1-amino-7-(3-fluorophenyl)-N-[2-(2-oxoimidazolidin-1-yl)ethyl]isoquinoline-4-carboxamide], 0.148 µM corresponded to half-maximal inhibition (IC50).

On to `CN1CCN(CCNC(=O)c2cnc(N)c3cc(-c4cccc(F)c4)ccc23)CC1` [Example 83, 1-amino-7-(3-fluorophenyl)-N-[2-(4-methylpiperazin-1-yl)ethyl]isoquinoline-4-carboxamide], for which the IC50 was 0.217 µM.

Molecule `C[C@@H](NC(=O)c1cnc(N)c2cc(-c3cccc(F)c3)ccc12)C(N)=O` [Example 84, 1-amino-N-[(1R)-2-amino-1-methyl-2-oxo-ethyl]-7-(3-fluorophenyl) isoquinoline-4-carboxamide] registered an IC50 of 0.557 µM.

Consider `C[C@H](NC(=O)c1cnc(N)c2cc(-c3cccc(F)c3)ccc12)C(N)=O` [Example 85, 1-amino-N-[(1S)-2-amino-1-methyl-2-oxo-ethyl]-7-(3-fluorophenyl) isoquinoline-4-carboxamide], for which the IC50 was determined as 0.363 µM. This IC50 is about 1.5-fold lower than that of the molecule before.

The molecule `CN1CCC(Oc2ccc(NC(=O)c3cnc(N)c4cc(-c5cccc(F)c5)ccc34)cc2)CC1` [Example 86, 1-amino-7-(3-fluorophenyl)-N-[4-[(1-methyl-4-piperidyl)oxy]phenyl] isoquinoline-4-carboxamide] came in with an IC50 of 0.0081 µM. Against the preceding molecule, the IC50 is about 45-fold lower.

`CNC(=O)c1nc(CNC(=O)c2cnc(N)c3cc(-c4cccc(F)c4)ccc23)no1` [Example 87, 3-[[[1-amino-7-(3-fluorophenyl)isoquinoline-4-carbonyl]amino]methyl]-N-methyl-1,2,4-oxadiazole-5-carboxamide] registered a 50% inhibitory concentration (IC50) of 0.0452 µM.

With `CC(C)(CNC(=O)c1cnc(N)c2cc(-c3cccc(F)c3)ccc12)N1CCOCC1` [Example 88, 1-amino-7-(3-fluorophenyl)-N-(2-methyl-2-morpholino-propyl)isoquinoline-4-carboxamide], the half-maximal inhibitory concentration (IC50) is 0.95 µM.

Molecule `Nc1ncc(C(=O)NCc2cnccn2)c2ccc(-c3cccc(F)c3)cc12` [Example 89, 1-amino-7-(3-fluorophenyl)-N-(pyrazin-2-ylmethyl) isoquinoline-4-carboxamide] returned an IC50 of 0.231 µM.

The molecule `COc1ccccc1CNC(=O)c1cnc(N)c2cc(-c3cccc(F)c3)ccc12` [Example 90, 1-amino-7-(3-fluorophenyl)-N-[(2-methoxyphenyl)methyl]isoquinoline-4-carboxamide] came in with an IC50 of 0.141 µM. This IC50 is about 1.6-fold lower than that of the molecule before.

In the case of `COc1cccc(CNC(=O)c2cnc(N)c3cc(-c4cccc(F)c4)ccc23)c1` [Example 91, 1-amino-7-(3-fluorophenyl)-N-[(3-methoxyphenyl)methyl]isoquinoline-4-carboxamide], the IC50 is 0.0511 µM.

`CC(C)CNC(=O)c1cnc(N)c2cc(-c3cccc(F)c3)ccc12` [Example 92, 1-amino-7-(3-fluorophenyl)-N-isobutyl-isoquinoline-4-carboxamide]: inhibition was half-maximal at 0.0335 µM (IC50). Compared with the last molecule, the IC50 is about 1.5-fold lower.

As for `Nc1ncc(C(=O)NCc2ccncc2)c2ccc(-c3cccc(F)c3)cc12` [Example 93, 1-amino-7-(3-fluorophenyl)-N-(4-pyridylmethyl) isoquinoline-4-carboxamide], it took 0.0645 µM to reach half-maximal inhibition (IC50). Against the preceding molecule, the IC50 is about 1.9-fold higher.

`Nc1ncc(C(=O)NCc2cccnc2)c2ccc(-c3cccc(F)c3)cc12` [Example 94, 1-amino-7-(3-fluorophenyl)-N-(3-pyridylmethyl) isoquinoline-4-carboxamide] showed an IC50 of 0.077 µM. The IC50 values of the last two molecules are within 1.5-fold of each other.

For `Cc1cc(NC(=O)c2cnc(N)c3cc(-c4cccc(F)c4)ccc23)ccn1` [Example 95, 1-amino-7-(3-fluorophenyl)-N-(2-methyl-4-pyridyl) isoquinoline-4-carboxamide], the IC50 was 0.0391 µM.

`Nc1ncc(C(=O)NCc2ccccn2)c2ccc(-c3cccc(F)c3)cc12` [Example 96, 1-amino-7-(3-fluorophenyl)-N-(2-pyridylmethyl) isoquinoline-4-carboxamide] had an IC50 of 0.179 µM.

In the case of `Nc1ncc(C(=O)NC2CCC2)c2ccc(-c3cccc(F)c3)cc12` [Example 97, 1-amino-N-cyclobutyl-7-(3-fluorophenyl) isoquinoline-4-carboxamide], the IC50 amounted to 0.03 µM.

`Nc1ncc(C(=O)NC2CCCC2)c2ccc(-c3cccc(F)c3)cc12` [Example 98, 1-amino-N-cyclopentyl-7-(3-fluorophenyl) isoquinoline-4-carboxamide] showed an IC50 of 0.0459 µM.

`CCNC(=O)c1cnc(N)c2cc(-c3cccc(F)c3)ccc12` [Example 99, 1-amino-N-ethyl-7-(3-fluorophenyl)isoquinoline-4-carboxamide] showed an IC50 of 0.0257 µM.

For `Nc1ncc(C(=O)NCCCO)c2ccc(-c3cccc(F)c3)cc12` [Example 100, 1-amino-7-(3-fluorophenyl)-N-(3-hydroxypropyl) isoquinoline-4-carboxamide], it took 0.0395 µM to reach half-maximal inhibition (IC50).

With `Nc1ncc(C(=O)NCC2CC2)c2ccc(-c3cccc(F)c3)cc12` [Example 101, 1-amino-N-(cyclopropylmethyl)-7-(3-fluorophenyl) isoquinoline-4-carboxamide], the IC50 is 0.0399 µM. The IC50 values of the last two molecules are within 1.5-fold of each other.

For the molecule `CC(C)NC(=O)c1cnc(N)c2cc(-c3cccc(F)c3)ccc12` [Example 102, 1-amino-7-(3-fluorophenyl)-N-isopropyl-isoquinoline-4-carboxamide], half-maximal inhibition (IC50) was put at 0.135 µM.

As for `NC(=O)CNC(=O)c1cnc(N)c2cc(-c3cccc(F)c3)ccc12` [Example 103, 1-amino-N-(2-amino-2-oxo-ethyl)-7-(3-fluorophenyl) isoquinoline-4-carboxamide], inhibition was half-maximal at 0.115 µM (IC50).

The molecule `Cc1cnc(CNC(=O)c2cnc(N)c3cc(-c4cccc(F)c4)ccc23)cn1` [Example 104, 1-amino-7-(3-fluorophenyl)-N-[(5-methylpyrazin-2-yl)methyl]isoquinoline-4-carboxamide] showed an IC50 of 0.0909 µM.

Take `Cc1ncccc1NC(=O)c1cnc(N)c2cc(-c3cccc(F)c3)ccc12` [Example 105, 1-amino-7-(3-fluorophenyl)-N-(2-methyl-3-pyridyl) isoquinoline-4-carboxamide]: the IC50 amounted to 0.0377 µM.

`Nc1ncc(C(=O)Nc2ccncc2)c2ccc(-c3cccc(F)c3)cc12` [Example 106, 1-amino-7-(3-fluorophenyl)-N-(4-pyridyl)isoquinoline-4-carboxamide] had an IC50 of 0.0224 µM.

`Nc1ncc(C(=O)Nc2cccnc2)c2ccc(-c3cccc(F)c3)cc12` [Example 107, 1-amino-7-(3-fluorophenyl)-N-(3-pyridyl)isoquinoline-4-carboxamide] registered an IC50 of 0.0124 µM.

`Nc1ncc(C(=O)NC2CC2)c2ccc(-c3cccc(F)c3)cc12` [Example 108, 1-amino-N-cyclopropyl-7-(3-fluorophenyl) isoquinoline-4-carboxamide] registered an IC50 of 0.0156 µM. The IC50 values of the last two molecules are within 1.5-fold of each other.

Molecule `Nc1ncc(C(=O)NCCO)c2ccc(-c3cccc(F)c3)cc12` [Example 109, 1-amino-7-(3-fluorophenyl)-N-(2-hydroxyethyl) isoquinoline-4-carboxamide] showed an IC50 of 0.0774 µM.

In the case of `Nc1ncc(C(=O)NCCC(=O)N2CCOCC2)c2ccc(-c3cccc(F)c3)cc12` [Example 110, 1-amino-7-(3-fluorophenyl)-N-(3-morpholino-3-oxo-propyl)isoquinoline-4-carboxamide], the half-inhibitory concentration (IC50) amounted to 0.403 µM.

Consider `N#CCNC(=O)c1cnc(N)c2cc(-c3cccc(F)c3)ccc12` [Example 111, 1-amino-N-(cyanomethyl)-7-(3-fluorophenyl) isoquinoline-4-carboxamide], for which the IC50 is 0.0441 µM.

In turn, `Nc1ncc(C(=O)NC2CCOC2)c2ccc(-c3cccc(F)c3)cc12` (centres unmarked) [Example 112, 1-amino-7-(3-fluorophenyl)-N-tetrahydrofuran-3-yl-isoquinoline-4-carboxamide] returned an IC50 of 0.0731 µM.

`Nc1ncc(C(=O)NC(CO)CO)c2ccc(-c3cccc(F)c3)cc12` [Example 114, 1-amino-7-(3-fluorophenyl)-N-[2-hydroxy-1-(hydroxy-methyl)ethyl]isoquinoline-4-carboxamide]: the IC50 stood at 0.0386 µM.

Turning to `Nc1ncc(C(=O)NC2COC2)c2ccc(-c3cccc(F)c3)cc12` [Example 115, 1-amino-7-(3-fluorophenyl)-N-(oxetan-3-yl)isoquinoline-4-carboxamide], the midpoint of inhibition, the IC50, lay at 0.0454 µM.

In turn, `Cc1cncc(NC(=O)c2cnc(N)c3cc(-c4cccc(F)c4)ccc23)c1` [Example 116, 1-amino-7-(3-fluorophenyl)-N-(5-methyl-3-pyridyl) isoquinoline-4-carboxamide] returned an IC50 of 0.114 µM.
